Reference: patent US8252748B2, “Peptide derived from neurotensin receptor 3 and use thereof in the treatment of psychiatric diseases” (Centre National de la Recherche Scientifique—CNRS, priority 2007, dated 2012)
No end group written: not given here.

Key:
Type in all cases: in vivo, mouse
C57BL6/J mice [1] = experiment: Kainate-induced epileptic seizures; details: IP 100 μl at 10^−5 M; kainate 30 mg/kg IP; 90 minutes after kainate; 10 mice per group (5 in saline group)
Procedure: In this experiment, the mice used were C57BL6/J, […], which received an intraperitoneal injection of 100 μl of physiological saline solution and a “PE 10^−5 M” group, in which the mice received an intraperitoneal injection of 100 μl of a solution containing the peptide of the invention at a concentration of 10^−5M. In each of the experimental groups, epileptic seizures were induced by intraperitoneal injection of 100 μl of kainate at a rate of 30 mg/kg. Observation of the stage of epileptic seizure was carried out 90 minutes after injection of kainate. This was based on observation of the behavior of the mice.
The different stages of epileptic seizure are presented in the document of Tsirka S. E., Gualandris, A., Amaral, D. G., Strickland, S. “Excitotoxin-induced neuronal degeneration and seizure are mediated by tissue plasminogen activator”, Nature, 377: 340-344 (1995) (26).
6 stages are defined for describing the intensity of an epileptic attack: • Stage 1: immobility • Stage 2: movements of the head and of the nape • Stage 3: unilateral clonic activity • Stage 4: bilateral clonic activity • Stage 5: generalized convulsions • Stage 6: death of the animal
Statistical analysis was performed by a two-factor ANOVA test followed by the post-hoc test.

[2] = tested on: hippocampus progenitor cells; experiment: Neurogenesis (BrdU-positive cells) after 4 days of treatment; details: PE 10^−5 M
Text: In contrast to many antidepressants now commonly used, the efficacy of action of the peptide of the invention is very rapid. […] 93: 3908-3913 (1996) (28) and with a considerable decrease in neurogenesis in the dentate gyrus (Gould, E., Tanapat, P., McEwen, B. S., Flugge, G., Fuchs, E. “Proliferation of granule cell precursors in the dentate gyrus of adult monkeys is diminished by stress” Proc Natl Acad Sci USA, 95: 3168-3171 (1998)) (29).
The experimental protocol is that described in the material and methods (Supplement) of the work of Santarelli et al., “Requirement of hippocampal neurogenesis for the behavioral effects of antidepressants” Science, 301: 805-809 (2003) (24) apart from the duration of treatment, which is four days.
The increase was evaluated using the one-factor ANOVA test followed by the post-hoc test.

C57BL6/J mice [3] = experiment: Intake of food and drinking water after long-term treatment; details: daily IP 100 μl at 10^−5 M for 15 days; 6 and 72 hours after end of treatment
Procedure: The intake of food and of drinking water was also measured. Two experimental groups of C57BL6/J mice (n=10 per group) were used: the first group received an intraperitoneal injection daily for 15 days of 100 μl of physiological saline solution (“PHYS SALINE”), the second group received an intraperitoneal injection daily for 15 days of 100 μl of a solution containing the peptide of sequence ID No. 2 at a concentration of 10^−5M (“PE 10^−5 M”).
These measurements were taken 6 and 72 hours after the end of long-term treatment.
The difference was evaluated using the Student t test.

Sequence: APLPRWSGPIGVSWGLR [propeptide, APLPRWSGPIGVSWGLR]
- number of animals that reached stage 5 (generalized convulsions) (C57BL6/J mice [1]): 2 animals
- neurogenesis relative to physiological saline [2]: significant increase in neurogenesis
- food intake (C57BL6/J mice [3]): does not have a significant effect
- intake of drinking water (C57BL6/J mice [3]): no significant difference
